SMILES strings stand for the structures.

In assay [1] the test system is HCV Replicon IB. The assay is described as follows: HCV replicon assay in Huh-7 cells, genotype 1b (Rluc luciferase readout). Format: cell-based, hepatitis C virus. Particulars: Hepatitis C virus, 72 h; 10 μM; Huh-7 HCV replicon cells, 3 days; read-out: % inhibition @ 10 μM HCV Replicon IB.
Assay [2] concerns HCV Replicon IA. The assay is described as follows: HCV replicon assay in Huh-7 cells, genotype 1a. Format: cell-based. To be noted: Hepatitis C virus, 72 h, Huh-7 HCV replicon cells, 3 days.

As for `CC(NC(=O)c1cc(O)c2cc(-c3cn[nH]c3)cc(C(F)(F)F)c2n1)c1ccccn1` (stereo not shown) [Compound 20], the inhibition at 10 µM came out at 89% in assay [1] and 86.1% in assay [2].
For `O=C(NCc1cccs1)c1nc(N2CCCC2)c2cc(-c3ccccc3)cc(C(F)(F)F)c2n1` [Compound 53] the same measures were 86.2% and 91.4%.
For `O=C(c1cc(O)c2cc(-c3ccoc3)cc(C(F)(F)F)c2n1)N1CCC(c2cccc(F)c2)CC1` [Compound 31], the inhibition at 10 µM in assay [1] amounted to 58.1%; in assay [2], 98.1%.
In the case of `O=C(NCc1ccc(Cl)s1)c1cc(O)c2cc(-c3cc[nH]n3)cc(C(F)(F)F)c2n1` [Compound 14], the results for the inhibition at 10 µM in assay [1] and in assay [2] were 68.6% and 84.2%, respectively.
Consider `O=C(NCc1cccs1)c1nc(O)c2cc(-c3cn[nH]c3)cc(C(F)(F)F)c2n1` [Compound 49], for which the inhibition at 10 µM was found to be 99% in assay [1] and 99.7% in assay [2].
For `O=C(NCc1cccs1)c1cc(O)c2c(Cl)c(-c3ccccc3)cc(C(F)(F)F)c2n1` [Compound 64] the same measures were 88.2% and 79.2%.
The matching figures for `O=C(Cc1cccs1)Nc1cc(O)c2cc(-c3ccccc3)cc(C(F)(F)F)c2n1` [Compound 40]: 97.6% and 99.7%.
For the compound `Nc1nc(C(=O)NCc2cccs2)nc2c(C(F)(F)F)cc(-c3ccccc3)cc12` [Compound 51], the inhibition at 10 µM in assay [1] and in assay [2] was 100% each time.
As for `O=C(NCc1cccs1)c1cc(O)c2cc(-c3cn[nH]c3)cc(C(F)(F)F)c2n1` [Compound 36], the inhibition at 10 µM worked out at 99.4% in assay [1] and 99.3% in assay [2].
The matching figures for `O=C(NCc1cccs1)c1cc(Cl)c2cc(-c3ccccc3)cc(C(F)(F)F)c2n1` [Compound 65]: 99.5% and 97.5%.
The matching figures for `O=C(NCc1nccs1)c1cc(O)c2cc(-c3cn[nH]c3)cc(C(F)(F)F)c2n1` [Compound 9]: 98.5% and 98.1%.
On to `O=C(NCc1ccccc1)c1cc(O)c2cc(-c3cn[nH]c3)cc(C(F)(F)F)c2n1` [Compound 5], for which the inhibition at 10 µM in assay [1] and in assay [2] was 99.2% each time.
In the case of `O=C(NCc1ccncn1)c1cc(O)c2cc(-c3cn[nH]c3)cc(C(F)(F)F)c2n1` [Compound 15], the results for the inhibition at 10 µM in assay [1] and in assay [2] were 47.3% and 59.3%, respectively.
The matching figures for `CNc1nc(C(=O)NCc2cccs2)nc2c(C(F)(F)F)cc(-c3ccccc3)cc12` [Compound 52]: 100% and 99.6%.
The matching figures for `O=C(NCc1ccccn1)c1cc(Cl)c2cc(-c3ccccc3)cc(C(F)(F)F)c2n1` [Compound 67]: 97.8% and 96.9%.
For `O=C(NCc1ccc(Cl)s1)c1cc(O)c2cc(-c3ccoc3)cc(C(F)(F)F)c2n1` [Compound 23] the same measures were 99.4% and 99.9%.
With `Cc1cc(C(=O)NCc2cccs2)nc2c(C(F)(F)F)cc(-c3ccoc3)cc12` [Compound 28], the inhibition at 10 µM worked out at 100% in assay [1] and 99.8% in assay [2].
For `Oc1cc(-c2nnc(Nc3ccccc3)o2)nc2c(C(F)(F)F)cc(-c3ccccc3)cc12` [Compound 54] the same measures were 98.7% and 97.9%.
The matching figures for `O=C(c1cc(O)c2cc(-c3ccoc3)cc(C(F)(F)F)c2n1)N1CC=C(c2ccccc2)CC1` [Compound 29]: 37.7% and 87.4%.
For `O=C(NCCc1ccccc1)c1cc(O)c2cc(-c3cn[nH]c3)cc(C(F)(F)F)c2n1` [Compound 16] the same measures were 96.7% and 93%.
`O=C(NCc1cccs1)c1cc(O)c2cc(-c3ccccc3)c(F)c(C(F)(F)F)c2n1` [Compound 59]: the inhibition at 10 µM is 97.2% in assay [1] and 92.7% in assay [2].
Take `Nc1cc(C(=O)NCc2cccs2)nc2c(C(F)(F)F)cc(-c3ccccc3)cc12` [Compound 66]: the inhibition at 10 µM in assay [1] and in assay [2] was 99.9% throughout.
As to `Cc1cccnc1CNC(=O)c1cc(O)c2cc(-c3cn[nH]c3)cc(C(F)(F)F)c2n1` [Compound 17], the values for the inhibition at 10 µM in assay [1] and in assay [2] were 96.4% and 98.3%, respectively.
For `O=C(NCc1cccs1)c1nc(O)c2cc(-c3ccccc3)cc(C(F)(F)F)c2n1` [Compound 47, 4-oxo-6-phenyl-8-trifluoromethyl-3,4-dihydro-quinazoline-2-carboxylic acid (thiophen-2-ylmethyl)-amide] the same measures were 99.8% and 99.7%.
For `O=C(NCc1cccnc1)c1cc(O)c2cc(-c3cn[nH]c3)cc(C(F)(F)F)c2n1` [Compound 11] the same measures were 66.1% and 63.2%.
For `COc1cc(C(=O)NCc2cccs2)nc2c(C(F)(F)F)cc(-c3ccoc3)cc12` [Compound 27], the inhibition at 10 µM in assay [1] amounted to 80.3%; in assay [2], 65.5%.
The matching figures for `O=C(NCc1ccncc1)c1cc(O)c2cc(-c3cn[nH]c3)cc(C(F)(F)F)c2n1` [Compound 13]: 20.7% and 43.4%.
For `O=C(NCc1ccccn1)c1cc(O)c2cc(-c3ccccc3F)cc(C(F)(F)F)c2n1` [Compound 70], the inhibition at 10 µM worked out at 82% in assay [1] and 69.1% in assay [2].
The matching figures for `O=C(NCc1cccs1)c1cc(O)c2cc(-c3ccccc3)cc(C(F)(F)F)c2n1` [Compound 34]: 98.3% and 97.8%.
In the case of `O=C(NCc1ccccn1)c1cc(O)c2cc(-c3cn[nH]c3)cc(C(F)(F)F)c2n1` [Compound 12], the inhibition at 10 µM in assay [1] was determined as 99.2%; in assay [2] it was 98.2%.
For `O=C(NCc1cccs1)c1cc(O)c2cc(-c3cc[nH]n3)cc(C(F)(F)F)c2n1` [Compound 35] the same measures were 94.5% and 94.2%.
The matching figures for `C[C@@H](NC(=O)c1cc(O)c2cc(-c3cn[nH]c3)cc(C(F)(F)F)c2n1)c1ccccc1` (single isomer, unassigned) [Compound 18]: 55.8% and 55.3%.
Consider `O=C(Nc1ccccc1)c1cc(O)c2cc(-c3cn[nH]c3)cc(C(F)(F)F)c2n1` [Compound 19], for which the values for the inhibition at 10 µM in assay [1] and in assay [2] were 71.1% and 98.5%, respectively.
Take `O=C(c1cc(O)c2cc(-c3ccoc3)cc(C(F)(F)F)c2n1)N1CCC(c2ccc(F)cc2)CC1` [Compound 30]: the inhibition at 10 µM in assay [1] was 74.9%; in assay [2], 95.3%.
For `Nc1cc(O)c2cc(-c3ccccc3)cc(C(F)(F)F)c2n1` [Compound 39] the same measures were 65% and 92.5%.
